According to ChEMBL document CHEMBL1201862, “PubChem BioAssay data set” (2004):
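Where inhibition never reached the appropriate level, the endpoint shown equals the highest concentration tested. Otherwise, values were interpolated linearly from a five-concentration, 48-hour dose response in 96-well plates. At the GI50, growth is halved.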 Active and inactive are the calls of the source. Cut-off read from the data, not from the text of the source: active = GI50 up to about 1.1 µM and inactive = higher.

Key:
Assay in all cases: NCI tumour cell line growth inhibition, 48 h
[1] = test system: SK-MEL-5
[2] = test system: SF-268
[3] = test system: PC-3
[4] = test system: RXF 393
[5] = test system: UACC-62
[6] = test system: HCT-15
[7] = test system: CAKI-1
[8] = test system: SK-MEL-28
[9] = test system: HOP-92
[10] = test system: MDA-MB-435
[11] = test system: SK-OV-3
[12] = test system: TK-10
[13] = test system: LOX IMVI
[14] = test system: A498
[15] = test system: HT-29
[16] = test system: T47D
[17] = test system: Hs-578T
[18] = test system: NCI-H522
[19] = test system: MCF7
[20] = test system: DU-145
[21] = test system: HCT-116
[22] = test system: SNB-75
[23] = test system: 786-0
[24] = test system: A549
[25] = test system: HL-60
[26] = test system: HCC 2998
[27] = test system: SR
[28] = test system: BT-549
[29] = test system: SF-295
[30] = test system: MDA-MB-231
[31] = test system: NCI-H23
[32] = test system: Malme-3M
[33] = test system: SNB-19
[34] = test system: EKVX
[35] = test system: OVCAR-5
[36] = test system: CCRF-CEM
[37] = test system: NCI-H226
[38] = test system: SF-539
[39] = test system: NCI/ADR-RES
[40] = test system: U-251
[41] = test system: IGROV-1
[42] = test system: MDA-N
[43] = test system: UO-31
[44] = test system: SN12C
[45] = test system: COLO 205
[46] = test system: OVCAR-3
[47] = test system: SK-MEL-2
[48] = test system: KM12
[49] = test system: SW-620
[50] = test system: RPMI-8226
[51] = test system: NCI-H460
[52] = test system: UACC-257
[53] = test system: OVCAR-4
[54] = test system: OVCAR-8
[55] = test system: ACHN
[56] = test system: K562
[57] = test system: M14
[58] = test system: HOP-62
[59] = test system: MOLT-4

Measured: GI50

Cc1cc(NS(=O)(=O)c2ccc(Nc3c4ccccc4nc4ccc(C(=O)Nc5ccc(S(N)(=O)=O)cc5)cc34)cc2)no1
inactive: [1] > 100 µM | [2] > 100 µM | [3] > 100 µM | [4] > 100 µM | [5] > 100 µM | [7] > 100 µM | [8] > 100 µM | [9] > 100 µM | [10] > 100 µM | [11] > 100 µM | [12] > 100 µM | [13] > 100 µM | [14] > 100 µM | [15] > 100 µM | [16] 84.3 µM | [17] > 100 µM | [18] > 100 µM | [19] > 100 µM | [20] > 100 µM | [21] > 100 µM | [22] > 100 µM | [23] > 100 µM | [24] > 100 µM | [25] > 100 µM | [26] > 100 µM | [27] > 100 µM | [28] > 100 µM | [29] > 100 µM | [30] > 100 µM | [31] > 100 µM | [32] > 100 µM | [33] > 100 µM | [34] > 100 µM | [35] > 100 µM | [36] > 100 µM | [37] > 100 µM | [38] > 100 µM | [39] > 100 µM | [40] 57.4 µM | [41] > 100 µM | [42] > 100 µM | [43] > 100 µM | [44] > 100 µM | [45] > 100 µM | [46] > 100 µM | [47] > 100 µM | [48] 69 µM | [49] > 100 µM | [50] > 100 µM | [51] > 100 µM | [52] > 100 µM | [53] > 100 µM | [54] > 100 µM | [55] > 100 µM | [56] > 100 µM | [57] > 100 µM | [58] > 100 µM | [59] > 100 µM
> 100 µM: [6]

Cn1cnc([N+](=O)[O-])c1Sc1nc(N)nc2c1ncn2[C@H]1C[C@H](O)[C@@H](CO)O1
active: [11] 0.463 µM | [13] 0.434 µM | [27] 1.07 µM | [50] 1.09 µM | [51] 1.03 µM | [58] 0.971 µM
inactive: [1] 4.08 µM | [2] 1.77 µM | [3] 6.84 µM | [4] 8.32 µM | [5] 1.51 µM | [7] 4.05 µM | [8] 14.5 µM | [9] 17.3 µM | [10] 2.29 µM | [12] 3.98 µM | [14] 5.42 µM | [15] 3.54 µM | [16] 7.52 µM | [17] 10.3 µM | [18] 2.57 µM | [19] 2.61 µM | [20] 1.21 µM | [21] 2.86 µM | [22] 5.68 µM | [23] 3.86 µM | [24] 4.63 µM | [25] 4.86 µM | [26] 13.8 µM | [28] 5.62 µM | [29] 3.11 µM | [30] 3.36 µM | [31] 3.91 µM | [32] 5.26 µM | [33] 62.1 µM | [34] 9.18 µM | [35] 3.08 µM | [36] 2.88 µM | [37] 7.82 µM | [38] 10.2 µM | [39] 1.28 µM | [40] 12 µM | [41] 5.13 µM | [42] 4.36 µM | [43] 3.43 µM | [44] 5.16 µM | [45] 4.63 µM | [46] 3.44 µM | [47] 2.45 µM | [48] 2.77 µM | [49] 6.5 µM | [52] 8.32 µM | [53] 2.99 µM | [54] 2.51 µM | [55] 3.52 µM | [56] 2.71 µM | [57] 1.16 µM | [59] 2.43 µM
4.17 µM: [6]

O=S(=O)(O)c1ccc(/N=N/c2c(O)ccc3ccccc23)cc1
> 100 µM: [6]
inactive: [1] > 100 µM | [2] > 100 µM | [3] > 100 µM | [4] > 100 µM | [5] > 100 µM | [7] > 100 µM | [8] > 100 µM | [9] > 69.8 µM | [10] > 100 µM | [11] > 100 µM | [12] > 100 µM | [13] > 100 µM | [14] > 100 µM | [15] > 100 µM | [16] > 100 µM | [17] > 100 µM | [18] > 100 µM | [19] > 100 µM | [20] > 100 µM | [21] > 100 µM | [22] > 100 µM | [23] > 100 µM | [24] > 100 µM | [25] > 100 µM | [26] > 100 µM | [27] > 100 µM | [28] > 100 µM | [29] > 100 µM | [30] > 100 µM | [31] > 100 µM | [32] 4.58 µM | [33] > 100 µM | [34] > 100 µM | [35] > 100 µM | [36] > 100 µM | [37] 98.2 µM | [38] > 100 µM | [39] > 100 µM | [40] > 100 µM | [41] > 100 µM | [42] > 100 µM | [43] > 100 µM | [44] > 100 µM | [45] > 100 µM | [46] > 100 µM | [47] > 100 µM | [48] > 100 µM | [49] > 100 µM | [50] > 100 µM | [51] > 100 µM | [52] > 100 µM | [53] > 100 µM | [54] > 100 µM | [55] > 100 µM | [56] > 100 µM | [57] > 100 µM | [58] > 100 µM | [59] > 100 µM
